Reference: patent publication US9029147B2, “Methods and compositions for enhanced differentiation from embryonic stem cells” (Massachusetts Institute of Technology, priority 2007, dated 2015)
Where “and” joins values, the source holds several entries; their conditions need not be identical. Equal values may be shown once.

How the values were obtained:
Format in all cases: cell-based, mouse
[1] = tested on: J1 mES cells; assay: Fraction of MF-20 positive cells (cardiomyocytes) by flow cytometry, alternate differentiation protocol
Text: (§1) • Undifferentiated ES cell culture. J1 and R1 ES cells were obtained from ATCC (SCRC 1010, SCRC 1036, Manassaas, Va.), expanded on Mitomycin-C treated MEF cells, and frozen into vials following ATCC protocols. Vials were thawed into undifferentiated ES cell maintenance medium (described in Table 1) containing supplemental leukaemia inhibitory factor (LIF) and plated at a density of about 5×10^4 cell/cm^2 on 25 cm^2 cell culture flasks (353109, Becton Dickinson, Franklin Lakes, N.J.) that were treated for 30 min with a sterile 0.1% (w/v) solution of gelatine (G-2500, Sigma-Aldrich, St. Louis, Mo.) in tissue culture water (WFI, 25-055-CM, Mediatech, Herndon, Va.). Medium (Table 1) was exchanged daily, and cells were detached with 0.25% trypsin (30-2101, ATCC) every two days. Split fractions were chosen so that cells were plated at approximately 1.2^[…] cells/cm^2. Cells were used for differentiation experiments 4-6 days after thawing the cell vials. • EB formation. […] The concentration of cells with intact membranes was determined using trypan blue cell counts, and cells were diluted to a concentration of 2.5×10^4 membrane-intact cells/ml. […] of this cell suspension were aliquoted onto the inside surface of the lids of 10×10 cm Petri dishes (351112, Becton Dickinson) using an 8-channel pipette. The lids were inverted and placed onto the bottoms of the dishes, which were filled with 15 ml of a pre-warmed (37° C.) solution containing 75% (v/v) Dulbecco's phosphate buffered saline (DPBS, 21-030-CM, Mediatech), 25% water, and 0.002% (w/v) gelatine. • EB transfer. […], the resulting EBs were manually pipetted off of the Petri dish lid using wide-orifice pipette tips (3532, Molecular BioProducts, San Diego, Calif.) and placed into the wells of custom-made 24-well culture dish, which had the plastic bottom replaced with fibronectin-coated silicone rubber membrane. 30 EBs were placed into each well, and the medium was mixed by pipetting to distribute the EBs uniformly across the plate bottom. • Culture of attached EBs. The EBs attached and spread within one day of transfer to the silicone rubber membrane-based dish. The medium was removed from all of the wells 2 days after EB transfer and was replaced with 1 ml of fresh ES cell differentiation medium. On the following day, the medium was removed and replaced with 1 ml serum-free differentiation medium (Table 2). Medium continued to be exchanged daily with the serum-free differentiation medium until the end of the experiment. • Cell collection for nuclei counting and flow cytometry. […]

[2] = tested on: R1 ES cells; assay: as above; details: With 0.2 mM ascorbic acid
Text: as §1

[3] = tested on: mES cells; assay: Cardiomyocyte generation with 0 or 0.2 mM ascorbic acid, MF-20 immunostaining counted by flow cytometer; details: 10 days
Experimental: Low Oxygen and Ascorbic Acid Act Synergistically to Promote Cardiomyocyte Generation. mES cells were differentiated for 10 days at 142, 36, and 7 mmHg pO2 and with either 0 or 0.2 mM ascorbic acid. Cardiomyocyte generation was measured by counting fixed cells immunostained for sacromeric myosin heavy chain using the MF-20 with a flow cytometer. […] (FIGS. 10 and 11.).

[4] = tested on: mES cells; assay: Adhesion of mES cells to polystyrene and silicone rubber, native or with adsorbed gelatin or fibronectin; details: after a day in culture
Experimental: FIG. 23. Adhesion of ES cells to polystyrene and silicone rubber. Adhesion of mES cells to polystyrene and silicone rubber in their native states or with 0.1% gelatin in water or […] fibronectin in PBS adsorbed onto the surface for 24 hr prior to cell addition. Below each pair of micrographs is quantitative data for the total, attached, and suspension cell numbers. Results shown are mean±SD for three wells in a 24 well plate seeded with 2×10^5 cell 26 hr prior to performing the cell counts.
PSS solution (polyanion) was added to an untreated plate and incubated for 1 hr, followed by a 10 min wash with DPBS, a 1 hr incubation with PEI (polycation), and a 10 min wash with DPBS. Two additional incubations with both PSS and PEI (30 min each) with intervening washes (10 min) were done to build a (PSS-PEI)3 PEM. To this PEM an additional 3 layers each of type B gelatin (polyanion) and PDL (polycation) were formed, using 30 min incubations with the polyelectrolyte solution, and 10 min washes with DPBS. The final PEM structure was thus (PSS-PEI)3-(type B gelatin—PDL)3. […] Attached nuclei were counted by adding 0.5 ml of lysis solution to the well and incubating for 10 min. […] The membrane-intact cell concentration was determined using trypan blue cell counts, and cells were diluted to a concentration of 25,000 membrane intact cells/ml. […]

Row | Compound | Fraction of MF-20 positive cells ([1]; With 0.2 mM ascorbic acid, pO2gas 36, J1, 4 days hanging drop EBs then 7 days serum free ITS medium) | Change in fraction of cardiomyocytes when ascorbic acid was included in the culture medium ([1]; all of the oxygen conditions tested, P=0.0005, J1 and R1 experiments of Table 4) | Fraction of MF-20 positive cells ([2]; pO2gas 7, 4 days hanging drop EBs then 7 days serum free ITS medium) | Fraction of MF-20 positive cells ([2]; pO2gas 36, 4 days hanging drop EBs then 7 days serum free ITS medium) | Effect on cardiomyocyte generation in combination with low pO2 ([3]; 0.2 mM combined with 36 mmHg pO2) | Effect on cardiomyocyte generation ([3]; 0.2 mM vs 0 mM, at all pO2 (142, 36, 7 mmHg)) | Fraction of cells attached [4] [%]
1 | O=C1O[C@H]([C@@H](O)CO)C(O)=C1O [Ascorbic Acid, L-ascorbic acid] | 18 and 25 and 16 | highly significant increase | 4 | 22 | a larger increase in cardiomyocytes than with either method alone | increased cardiomyocyte generation | –
2 | fibronectin: protein adsorbed onto silicone rubber to promote cell adhesion (F1141, Sigma-Aldrich) | – | – | – | – | – | – | 99
